6 compounds from paper PMC6667408, “Discovery and preclinical characterization of [^18F]PI-2620, a next-generation tau PET tracer for the assessment of tau pathology in Alzheimer’s disease and other tauopathies” (European Journal of Nuclear Medicine and Molecular Imaging, 2019) can be followed below.

One assay has as its target T1, MAO-B (Homo sapiens, UniProt P27338).
T1 construct: gene MAOB; native enzyme in human non-demented control (NDC) brain homogenate
T1 sequence (P27338 2-520): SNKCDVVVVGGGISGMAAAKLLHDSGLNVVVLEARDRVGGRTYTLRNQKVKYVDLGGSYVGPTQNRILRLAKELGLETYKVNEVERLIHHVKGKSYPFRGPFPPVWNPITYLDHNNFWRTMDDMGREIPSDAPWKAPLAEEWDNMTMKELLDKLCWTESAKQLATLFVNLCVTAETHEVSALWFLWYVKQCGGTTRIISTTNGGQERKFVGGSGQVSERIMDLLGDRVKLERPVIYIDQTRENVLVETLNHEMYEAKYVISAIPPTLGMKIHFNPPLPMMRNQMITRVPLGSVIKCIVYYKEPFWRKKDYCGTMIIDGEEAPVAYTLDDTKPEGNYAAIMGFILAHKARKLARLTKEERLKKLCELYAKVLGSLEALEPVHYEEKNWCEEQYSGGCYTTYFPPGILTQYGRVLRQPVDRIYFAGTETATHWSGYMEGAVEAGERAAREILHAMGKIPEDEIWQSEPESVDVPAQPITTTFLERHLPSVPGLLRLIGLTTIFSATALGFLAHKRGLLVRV
In words: radioligand displacement of [3H]deprenyl, filtration. It is filed as binding. The settings on record: [3H]deprenyl radioligand, PBS, 0.1% BSA, 2% DMSO. (In a radioligand displacement assay an active substance lowers the binding of a labelled ligand.)

In another assay the target is T2, MAO-A (Mus musculus, UniProt Q64133).
T2 construct: gene Maoa; native enzyme in mouse brain homogenate, 20 ug/well
T2 sequence (Q64133 1-526): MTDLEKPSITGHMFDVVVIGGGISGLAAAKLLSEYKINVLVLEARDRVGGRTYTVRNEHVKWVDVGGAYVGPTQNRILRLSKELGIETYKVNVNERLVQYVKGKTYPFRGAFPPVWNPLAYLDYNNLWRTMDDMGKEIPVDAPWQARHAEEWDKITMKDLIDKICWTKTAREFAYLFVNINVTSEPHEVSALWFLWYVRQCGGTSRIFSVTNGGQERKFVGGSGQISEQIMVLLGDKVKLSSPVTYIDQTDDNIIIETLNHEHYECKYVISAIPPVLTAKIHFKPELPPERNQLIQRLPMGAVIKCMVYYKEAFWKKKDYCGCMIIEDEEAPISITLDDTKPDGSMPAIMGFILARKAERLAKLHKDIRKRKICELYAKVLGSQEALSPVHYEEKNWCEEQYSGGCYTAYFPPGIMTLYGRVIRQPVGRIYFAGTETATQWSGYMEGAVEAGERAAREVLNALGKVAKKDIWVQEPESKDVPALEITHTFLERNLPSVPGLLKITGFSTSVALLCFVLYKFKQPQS
In words: radioligand displacement of […]FEH, filtration. Particulars: [18F]fluoroethylharmine radioligand, PBS, 0.1% BSA, 2% DMSO. In kind it is binding.

The pIC50 is the negative decadic logarithm of the IC50, by convention in mol/L. In turn, `CNc1ccc(-c2ccc3cc(OCC(O)CF)ccc3n2)cn1` (stereo not drawn) [THK5151, reference compound] showed a pIC50 on MAO-B of 7.4. Regarding `Fc1ccc(-c2ccc3c(c2)[nH]c2ccncc23)cn1` [compound 1, AV-1451], the “[^3H]Deprenyl MAO-B pIC50^c” value on MAO-B is on record as 6.8. Besides, the “[^18F]FEH MAO-A pIC50^a” value at MAO-A worked out at 7.7. For `Fc1ccc(-c2ccc3c(n2)[nH]c2ccncc23)cn1` [compound 3, RO6958948], on MAO-A, the “[^18F]FEH MAO-A pIC50^a” value is 6.3. The same measure, in the same setting: the result for `Fc1cnccc1-c1ccc2c(n1)[nH]c1ccncc12` [compound 8, 8] reads 6.1.

As for `Fc1cccc(-c2ccc3c(n2)[nH]c2ccncc23)n1` [compound 9, 9], at MAO-B, the “[^3H]Deprenyl MAO-B pIC50^c” value amounted to 6.5. Moreover, at MAO-A, the “[^18F]FEH MAO-A pIC50^a” value was 6.6.

Turning to `Fc1ccc(-c2ccc3c(n2)[nH]c2ccncc23)nc1` [compound 10, 10], at MAO-B, the “[^3H]Deprenyl MAO-B pIC50^c” value is 6.5. Besides, the “[^18F]FEH MAO-A pIC50^a” value on MAO-A is given as 7.1.
